The record followed here is patent publication EP1379135B1, “FORMULATIONS COMPRISING ENTRAPPED ACTIVE INGREDIENTS AND USES THEREOF” (THE SCRIPPS RESEARCH INSTITUTE, priority 2001, dated 2002).

“Also recorded” adds a separate entry of the source.

The subject of series [1] is TNFα induced nitric oxide (NO) production in normal human articular chondrocytes. The series is described as follows: TNFα induced NO production in chondrocytes. The class given is cell-based.
For a further series, the system named is chondrocytes. The series can be described thus: Cell viability, MTT assay. The conditions noted are these: up to 20 mM. The class given is cell-based, human.
Series [2] concerns IL-1β induced NO production in normal human articular chondrocytes. The series is described as follows: IL-1β induced NO production in cultured chondrocytes (NO2 accumulation, Griess reaction). In kind it is cell-based. The conditions noted are these: for inhibitory activity on IL-1β induced NO production: concentration of 10 mM. The procedure: Chondrocytes were isolated from the cartilage by collagenase digestion and maintained in continuous monolayer cultures in DMEM containing 10% fetal bovine serum (FBS). Cell viability after chondrocyte isolation by collagenase digestion of normal cartilage was >95%. This level was maintained for at least 96 hrs post mortem. […] Experiments reported were performed with primary or first passage cells.
Chondrocytes were plated at 40,000 cells/well in 96-well plates in the presence of 1 % FBS. After 48 h, the medium was changed, and the cells were stimulated with IL-1β (Sigma) at a concentration of 5 ng/ml for 24 h. NO production was detected as NO2 accumulation in the culture supernatants by the Griess reaction as described elsewhere (Heval et al., (1994) Methods Enzymol. 233:250). IL-6 in the culture supernatants was measured by ELISA (R&D Systems, Minneapolis, MN) in accordance with the supplier's protocol.

The next series concerns bradykinin-induced pain. The series can be described thus: Bradykinin-induced pain after intra-articular administration (walking behavior pain score). In kind it is in vivo, Wistar rats. The conditions noted are these: intra-articular administration in rats; Figure 6. On the procedure: The purpose of this study was to investigate the analgesic effects of GlcNAc with or without liposomal formulations, injected intra-articularly into the joint of Wistar rats. Pain was induced by intra-articular administration of bradykinin. Adult male Wistar rats with a weight range from 220g to 250g were obtained from Laboratory Animals Centre, National University of Singapore. Bradykinin and GlcNAc were obtained from Sigma. The liposomes were prepared as described above.
50 µl of GlcNAc solution or an GIcNAc formulated liposome suspension was injected into a rat joint cavity. An equal volume of saline was given intra-articularly as a control. 50 µl of bradykinin (60 µg/ml or at the indicated concentration) was given intra-articularly at different time points following the administration of GlcNAc.
Changes in walking behavior caused by intra-articular injection of bradykinin were used to define induced pain criteria in rats. The methods used to observe the pain response are defined in Table 2. The degree of pain was assigned a score according to the criteria in Table 3.

For `N[C@H]1C(O)O[C@H](CO)[C@@H](O)[C@@H]1O` (stereo partly shown) [GA, glucosamine], the “TNFα induced nitric oxide (NO) production” value in series [1] is “inhibit”. The cell viability entry with chondrocytes is listed as “Neither GA nor GlcNAc at dosages up to 20 mM affected cell viability”. Besides, in series [2], the “NO production triggered by IL-1β” value is “suppressed NO production; also recorded: measurably inhibited NO production in the lower millimolar range” and the “concentrations not effective in inhibiting NO production” value is “below 1 mM”. Moreover, the IC50 in series [2] (Homo sapiens, Chondrocyte, IL-1β 5 ng/ml for 24 h, GlcNAc vs GA p < 0.01, read-out: IC50 (inhibition of NO production)) came to 14.9 ± 2.1 mM.
As to `CC(=O)N[C@H]1[C@H](O[C@H]2[C@H](O)[C@@H](NC(C)=O)C(O)O[C@@H]2CO)O[C@H](CO)[C@@H](O)[C@@H]1O` (stereo partly shown) [GlcNAc dimers, N,N'-diacetylchitobiose], the “NO production triggered by IL-1β” value in series [2] is on record as “did not express inhibitory activity”.
Regarding `CC(=O)N[C@H]1C(O)O[C@H](CO)[C@H](O)[C@@H]1O` (stereo partly shown) [N-acetylgalactosamine], the “inhibitory activity on IL-1β induced NO production” value in series [2] was “demonstrated inhibitory activity”.
In the case of `CC(=O)N[C@@H]1C(O)O[C@H](CO)[C@@H](O)[C@@H]1O` (stereo partly shown) [N-acetylmannosamine], the “TNFα induced nitric oxide (NO) production” value in series [1] is recorded as “did not inhibit”. Moreover, in series [2], the “inhibitory activity on IL-1β induced NO production” value is given as “did not inhibit”.
Consider `O=C[C@H](O)[C@@H](O)[C@H](O)[C@H](O)C(=O)O` [glucuronic acid], for which the “TNFα induced nitric oxide (NO) production” value in series [1] is “did not inhibit”. Further, the “inhibitory activity on IL-1β induced NO production” value in series [2] was “did not inhibit”.
With `CC(=O)N[C@H]1[C@H](O[C@H]2[C@H](O)[C@@H](NC(C)=O)C(O)O[C@@H]2CO)O[C@H](CO)[C@@H](O[C@@H]2O[C@H](CO)[C@@H](O)[C@H](O)[C@H]2NC(C)=O)[C@@H]1O` (stereo partly shown) [trimers, N,N',N"-triacetylchitotriose], the “NO production triggered by IL-1β” value in series [2] was “did not express inhibitory activity”.
With “Bradykinin (RPPGFSPFR; Bradykinin; UniProt P01042 381-389, looked up)”, the “pain scores, dose response” value in the series with bradykinin-induced pain was “Higher pain scores correlate with the amount of injected Bradykinin”.

The IC50 is the point on the concentration scale where inhibition reaches its midpoint.
